Read-outs that look alike come from different tables or passages of the source.
Tested on: modifizierten Shay-Ratte
Assay: Antiulcerogenic and secretion-inhibiting effect in the modified Shay rat (pylorus ligation + oral acetylsalicylic acid)
Type: in vivo
Conditions: for Magenschutzwirkung: Minderung des Läsionsindexes (%) / Säuresekretionshemmung: Verringerung der HCl-Sekretion (%): versus control group, 4 h after pylorus ligation; for ED50: iv, 4 h, i.v.
From the text: Prüfung der antiulcerogenen und sekretionshemmenden Wirkung an der modifizierten Shay-Ratte
In der folgenden Tabelle 1 ist der Einfluß der erfindungsgemäßen Verbindungen nach intravenöser (i. v.) Gabe auf die Läsionsbildung sowie die Säureausscheidung bei der modifizierten Shay-Ratte dargestellt.
Die Ulcusprovokation erfolgt an 24 Stunden nüchternen Ratten (weiblich, 180-200 g, 4 Tiere je Käfig auf hohem Gitterrost) durch Pylorusligatur (unter Diethylethernarkose) und orale Applikation von 100 mg/10ml/kg Acetylsalicylsäure. Die zu prüfenden Substanzen werden intravenös (1 ml/kg) unmittelbar nach der Pylorusligatur verabreicht. Der Wundverschluß wird mittels Michelklammern vorgenommen. 4 Stunden danach erfolgt die Tötung der Tiere im Etherrausch durch Atlas-Dislokation und die Resektion des Magens.
Der Magen wird längs der großen Kurvatur eröffnet und auf einer Korkplatte aufgespannt, nachdem zuvor die Menge des sezernierten Magensaftes (Volumen) und später sein HCl-Gehalt (Titration mit Natronlauge) bestimmt wird. Mit einem Stereomikroskop werden bei 10-facher Vergrößerung Anzahl und Größe (=Durch-messer) vorhandener Ulcera ermittelt. Das Produkt aus Schweregrad (gemäß nachfolgender Punkteskala) und Anzahl der Ulcera dient als individueller Läsionsindex.
Als Maß für den antiulcerogenen Effekt dient die Minderung des mittleren Lä-sionsindex jeder behandelten Gruppe gegenüber dem der Kontrollgruppe (=100 %). Die ED50 bezeichnet diejenige Dosis, die den mittleren Lösionsindex bzw. die HCl-Sektetion gegenüber der Kontrolle um 50 % mindert.

[1] = Rattus norvegicus, interpolated dose reducing the lesion index by 50 % versus control group, read-out: Magenschutzwirkung: ca. ED50 (µmol/kg) i.v.
[2] = interpolated dose reducing the HCl secretion of the rat stomach by 50 % versus control group, read-out: Säuresekretionshemmung: ca. ED50 (µmol/kg) i.v.

SMILES	Magenschutzwirkung: Minderung des Läsionsindexes (%) (Dosis 0,1 µmol/kg i.v.)	Säuresekretionshemmung: Verringerung der HCl-Sekretion (%) (Dosis 0,1 µmol/kg i.v.)	Magenschutzwirkung: Minderung des Läsionsindexes (%) (Dosis 0,3 µmol/kg i.v.)	Säuresekretionshemmung: Verringerung der HCl-Sekretion (%) (Dosis 0,3 µmol/kg i.v.)	Magenschutzwirkung: Minderung des Läsionsindexes (%) (Dosis 1,0 µmol/kg i.v.)	Säuresekretionshemmung: Verringerung der HCl-Sekretion (%) (Dosis 1,0 µmol/kg i.v.)	Magenschutzwirkung: Minderung des Läsionsindexes (%) (Dosis 3,0 µmol/kg i.v.)	Säuresekretionshemmung: Verringerung der HCl-Sekretion (%) (Dosis 3,0 µmol/kg i.v.)	Magenschutzwirkung: Minderung des Läsionsindexes (%) (Dosis 10,0 µmol/kg i.v.)	Säuresekretionshemmung: Verringerung der HCl-Sekretion (%) (Dosis 10,0 µmol/kg i.v.)	ED50 [1] [µmol/kg]	ED50 [2] [µmol/kg]	Magenschutzwirkung: Minderung des Läsionsindexes (%) (Dosis 0,03 µmol/kg i.v.)	Säuresekretionshemmung: Verringerung der HCl-Sekretion (%) (Dosis 0,03 µmol/kg i.v.)
Cc1nc2c(OC3CCc4ccccc43)cccn2c1C (stereo not drawn) [Beispiel 1, 8-(2,3-Dihydro-1-indenyloxy)-2,3-dimethyl-imidazo[1,2-a]pyridin]	40	19	58	21	75	40	100	62	100	78	~0.2	~1.93	–	–
Cc1nc2c(OC3CCc4ccccc43)cccn2c1CC#N (stereo not drawn) [Beispiel 4, 3-Cyanomethyl-8-(2,3-dihydro-1-indenyloxy)-2-methyl-imidazo[1,2-a]pyridin]	47	-10	64	26	86	27	100	83	–	–	~0.1	~1.34	38	3
